Experimental data published in DBAASP.
Converted amounts (≈) assume the structure as drawn. Each block holds one molecule with its values, some of them ahead of it.

Experiments:
Assay in all cases: ≥ marks a high value that may be exact or a test limit, other limits are often not marked, values filed in µg/mL are converted to µM
Micrococcus luteus A270 = system: Micrococcus luteus A270
[1] = system: Bacillus subtilis ATCC 6633
[2] = system: Bacillus megaterium ATCC 10778
[3] = system: Enterobacter cloacae beta-12
[4] = system: Staphylococcus aureus ATCC 29213
[5] = system: Serratia marcescens ATCC 4112
[6] = system: Pseudomonas aeruginosa ATCC 27853
[7] = system: Candida tropicalis IOC 4560
Escherichia coli SBS 363 = system: Escherichia coli SBS 363
Candida albicans MDM8 = system: Candida albicans MDM8
[8] = system: Escherichia coli KCTC 1682
[9] = system: Bacillus subtilis KCTC 3068
[10] = system: Pseudomonas aeruginosa KCTC 1637
[11] = system: Staphylococcus epidermidis KCTC 1917
[12] = system: Salmonella typhimurium KCTC 1926
[13] = system: Staphylococcus aureus KCTC 1621
[14] = system: Enterococcus faecalis KCTC 2011
[15] = system: Proteus vulgaris KCTC 2433
[16] = system: Micrococcus luteus ATCC 10240
[17] = system: Staphylococcus aureus ATCC 15752
[18] = system: Escherichia coli KCTC 2223
[19] = system: Salmonella typhimurium KCTC 2370
Escherichia coli BL21AI = system: Escherichia coli BL21AI
[20] = system: Micrococcus luteus DSM 1790
[21] = system: Salmonella enterica subsp. enterica serovar Anatum CICC 21498
[22] = system: Enterococcus faecalis ATCC 29212
[23] = system: Salmonella enterica subsp. enterica serovar Montevideo CICC 21588
[24] = system: Salmonella enterica subsp. enterica serovar Enteritidis CMCC 50041
[25] = system: Salmonella enterica subsp. enterica serovar Miami CICC 21509
[26] = system: Salmonella enterica subsp. enterica serovar Potsdam CICC 21500
[27] = system: Salmonella enterica subsp. enterica serovar Bonn CICC 21677
[28] = system: Salmonella enterica subsp. enterica serovar Bovismorbificans CICC 21499
[29] = system: Salmonella enterica subsp. enterica serovar Adelaide CICC 21505
Escherichia coli O157:H7 = system: Escherichia coli O157:H7
[30] = system: Salmonella enterica subsp. enterica serovar Agona CICC 21586
[31] = system: Salmonella enterica subsp. enterica serovar Eastbourne CICC 21508
[32] = system: Salmonella enterica subsp. enterica serovar Wandsworth CICC 21504
[33] = system: Salmonella enterica subsp. enterica serovar Dakar CICC 21507
[34] = system: Salmonella enterica subsp. enterica serovar Thompson CICC 21480
[35] = system: Salmonella typhimurium CMCC 50115
[36] = system: Candida albicans ATCC 10231
[37] = system: Salmonella enterica subsp. enterica serovar Saintpaul CICC 21486
[38] = system: Salmonella enterica subsp. enterica serovar Kentucky CICC 21488
[39] = system: Salmonella enterica subsp. enterica serovar Typhimurium CICC 21483
[40] = system: Salmonella enterica subsp. enterica serovar Meleagridis CICC 21511
[41] = system: Salmonella enterica subsp. enterica serovar Heidelberg CICC 21487
[42] = system: Salmonella enterica subsp. enterica serovar Senftenberg CICC 21502
[43] = system: Staphylococcus epidermidis ATCC 12228
[44] = system: Salmonella enterica subsp. arizonae CICC 21506
[45] = system: Salmonella enterica subsp. enterica serovar Aberdeen CICC 21492
[46] = system: Salmonella enterica subsp. enterica serovar Dublin CICC 21497
[47] = system: Salmonella enterica subsp. enterica serovar Braenderup ATCC H9812
[48] = system: Staphylococcus aureus ATCC 43300
[49] = system: Salmonella enterica subsp. enterica serovar Blockley CICC 21489
[50] = system: Salmonella enterica subsp. enterica serovar Jerusalem CICC 21651

MIC (Micrococcus luteus A270): 1.6 µM (≈ 2.48 µg/mL)
MIC [1]: 0.8 µM (≈ 1.24 µg/mL)
MIC [2]: 1.6 µM (≈ 2.48 µg/mL)
MIC [3]: 12.5 µM (≈ 19.4 µg/mL)
MIC [4]: 1.6 µM (≈ 2.48 µg/mL)
MIC [5]: 0.4 µM (≈ 0.62 µg/mL)
MIC [6]: 12.5 µM (≈ 19.4 µg/mL)
MIC [7]: 1.6 µM (≈ 2.48 µg/mL)
MIC (Escherichia coli SBS 363): 1.6 µM (≈ 2.48 µg/mL)
MIC (Candida albicans MDM8): 3.1 µM (≈ 4.8 µg/mL)
SMILES: CC(C)C[C@H](NC(=O)[C@H](C)NC(=O)[C@H](CCCN=C(N)N)NC(=O)[C@H](CC(C)C)NC(=O)[C@@H](N)Cc1ccccc1)C(=O)N[C@@H](Cc1c[nH]c2ccccc12)C(=O)N[C@@H](CC(N)=O)C(=O)N[C@H](C(=O)N[C@@H](C)C(=O)N[C@@H](CCCCN)C(=O)N[C@@H](CO)C(=O)N[C@H](C(=O)N[C@@H](Cc1ccccc1)C(N)=O)C(C)C)C(C)C [FLRALWNVAKSVF]

MIC [8]: 22.6 µM (≈ 43.2 µg/mL)
MIC [9]: 11.3 µM (≈ 21.6 µg/mL)
MIC [10]: ≥ 32 µM
MIC [11]: 22.6 µM (≈ 43.2 µg/mL)
MIC [12]: ≥ 32 µM
MIC [13]: 8 µM (≈ 15.3 µg/mL)
MIC [14]: 16 µM (≈ 30.5 µg/mL)
MIC [15]: ≥ 32 µM
SMILES: CC(C)C[C@H](NC(=O)[C@H](CC(C)C)NC(=O)[C@H](CCCCN)NC(=O)[C@H](CC(C)C)NC(=O)[C@H](CC(C)C)NC(=O)[C@H](CCCCN)NC(=O)[C@H](CCCCN)NC(=O)[C@H](CC(C)C)NC(=O)[C@H](CC(C)C)NC(=O)[C@H](CCCCN)NC(=O)[C@H](CCCCN)NC(=O)[C@H](Cc1c[nH]c2ccccc12)NC(=O)[C@@H](N)CCCCN)C(=O)N[C@@H](CCCCN)C(=O)N[C@@H](CCCCN)C(=O)O [KWKKLLKKLLKLLKK]

MIC [16]: ≥ 32 µM
MIC [17]: ≥ 32 µM
MIC [18]: ≥ 32 µM
MIC [19]: ≥ 32 µM
SMILES: CC(C)[C@H](NC(=O)[C@H](CCCCN)NC(=O)[C@@H](N)CCCN=C(N)N)C(=O)N[C@@H](CCCN=C(N)N)C(=O)NCC(=O)N1CCC[C@H]1C(=O)N1CCC[C@H]1C(=O)O [RKVRGPP]

MIC (Escherichia coli BL21AI): ≥ 57.4 µM
MIC [20]: 28.7 µM (≈ 62.5 µg/mL)
SMILES: CC[C@H](C)[C@H](NC(=O)[C@H](CCCN=C(N)N)NC(=O)[C@H](CCCN=C(N)N)NC(=O)[C@@H]1CCCN1C(=O)[C@@H]1CCCN1C(=O)[C@@H](NC(=O)[C@@H]1CCCN1C(=O)[C@H](CCCN=C(N)N)NC(=O)[C@@H]1CCCN1C(=O)[C@H](CC(C)C)NC(=O)[C@H](Cc1ccc(O)cc1)NC(=O)[C@@H]1CCCN1C(=O)[C@@H]1CCCN1C(=O)[C@H](CCCCN)NC(=O)[C@H](CC(=O)O)NC(=O)[C@@H](N)C(C)C)[C@@H](C)O)C(=O)N[C@@H](Cc1ccc(O)cc1)C(=O)N[C@@H](CC(N)=O)C(=O)O [VDKPPYLPRPTPPRRIYN]

MIC [21]: 2.16 µM (≈ 3.99 µg/mL)
MIC [22]: 1.08 µM (≈ 2 µg/mL)
MIC [23]: 2.16 µM (≈ 3.99 µg/mL)
MIC [24]: 4.31 µM (≈ 7.99 µg/mL)
MIC [25]: 4.31 µM (≈ 7.99 µg/mL)
MIC [26]: 1.08 µM (≈ 2 µg/mL)
MIC [27]: 1.08 µM (≈ 2 µg/mL)
MIC [28]: 2.16 µM (≈ 3.99 µg/mL)
MIC [29]: 2.16 µM (≈ 3.99 µg/mL)
MIC (Escherichia coli O157:H7): 2.16 µM (≈ 3.99 µg/mL)
MIC [30]: 2.16 µM (≈ 3.99 µg/mL)
MIC [31]: 2.16 µM (≈ 3.99 µg/mL)
MIC [32]: 2.16 µM (≈ 3.99 µg/mL)
MIC [33]: 2.16 µM (≈ 3.99 µg/mL)
MIC [34]: 2.16 µM (≈ 3.99 µg/mL)
MIC [35]: 2.16 µM (≈ 3.99 µg/mL)
MIC [36]: 1.08 µM (≈ 2 µg/mL)
MIC [4]: 2.16 µM (≈ 3.99 µg/mL)
MIC [37]: 1.08 µM (≈ 2 µg/mL)
MIC [38]: 2.16 µM (≈ 3.99 µg/mL)
MIC [39]: 2.16 µM (≈ 3.99 µg/mL)
MIC [40]: 2.16 µM (≈ 3.99 µg/mL)
MIC [41]: 1.08 µM (≈ 2 µg/mL)
MIC [42]: 2.16 µM (≈ 3.99 µg/mL)
MIC [43]: 2.16 µM (≈ 3.99 µg/mL)
MIC [44]: 2.16 µM (≈ 3.99 µg/mL)
MIC [45]: 2.16 µM (≈ 3.99 µg/mL)
MIC [46]: 2.16 µM (≈ 3.99 µg/mL)
MIC [47]: 2.16 µM (≈ 3.99 µg/mL)
MIC [48]: 4.31 µM (≈ 7.99 µg/mL)
MIC [49]: 4.31 µM (≈ 7.99 µg/mL)
MIC [50]: 4.31 µM (≈ 7.99 µg/mL)
SMILES: C[C@@H](O)[C@@H]1NC(=O)[C@@H](NC(=O)[C@H](CCCCN)NC(=O)[C@H](Cc2c[nH]c3ccccc23)NC(=O)[C@H](CCCCN)NC(=O)[C@@H](N)Cc2c[nH]c3ccccc23)CSSC[C@@H](C(=O)N[C@@H](CCCCN)C(=O)N[C@@H](Cc2c[nH]c3ccccc23)C(=O)N[C@@H](CCCCN)C(=O)N[C@@H](Cc2c[nH]c3ccccc23)C(N)=O)NC(=O)CNC(=O)[C@H](CO)NC(=O)[C@H](CCCCN)NC1=O [WKWKCTKSGCKWKW]
